Assays:
male CD1 mice = experiment: Predictive sedation-hypnosis test in mice (motor activity, crossings); assay type: in vivo; conditions: single equimolecular intraperitoneal dose, crossings over 30 min after dosing (first 5 min discarded) versus control
Protocol: • In vivo determination of predictive sedative-hypnotic action.
The in vivo effects of these compounds were assessed by a predictive sedation-hypnosis test in mice (D. J. Sanger et al., Eur. J. Pharmacol., 313, 35-42, 1996; and G. Griebel et al., Psychopharmacology, 146, 205-213, 1999). Groups of 5-8 male CD1 mice, weighing 22-26 g at the time of test, were used. The test compounds were administered in single equimolecular intraperitoneal doses, suspended in 0.25% agar with one drop of Tween in a volume of 10 ml/kg. Control animals received the vehicle alone. Using an Actisystem DAS16 (Panlab, S. L., Spain) the crossings (number of counts) were recorded for each mouse at 5-min intervals during a period of 30 minutes after dosing. The inhibition percentage of crossings of treated animals versus control animals (the first 5 min were discarded) was calculated.

## CN(c1cccc(-c2ccnc3c(C#N)cnn23)c1)S(C)(=O)=O [Example 2, N-[3-(3-cyano-pyrazolo[1,5-a]pyrimidin-7-yl)-phenyl]-N-methyl-methanesulfonamide]
other
  melting point: 193 to 195 °C
Male CD1 mice
  % Motor Activity Inhibition: 71.39%

## CN(c1cccc(-c2ccnc3c(C(=O)c4cccs4)cnn23)c1)S(C)(=O)=O [Example 3, N-methyl-N-{3-[3-(thiophene-2-carbonyl)-pyrazolo[1,5-a]pyrimidin-7-yl]-phenyl}-methanesulfonamide]
other
  melting point: 169 to 170 °C
Male CD1 mice
  % Motor Activity Inhibition: 93.58%

From patent US7947688B2, “N-[3-(3-substituted-pyrazolo[1,5-a]pyrimidin-7-yl)phenyl]-sulfonamides, and compositions, and methods related thereto” (Ferrer Internacional, S.A., priority 2003, dated 2011)
